{"source": "patent US20100292185A1", "about": "“BETA-LACTAMASE INHIBITORS” (priority 2009, published 2010)", "key": {"[1]": {"test_system": "K. pneumoniae expressing the Class A Extended Spectrum Beta-Lactamase (ESBL) CTX-M-15", "assay": "In vitro antibacterial assay of β-lactamase inhibition (broth microdilution MIC), K. pneumoniae CTX-M-15", "format": "cell-based", "settings": "for MIC: Klebsiella pneumoniae, read-out: MIC alone, K. pneumoniae CTX-M-15", "source_text": "(§1) To determine the ability of test compounds to potentiate the inhibition of the growth of bacterial strains producing beta-lactamase enzymes, classic cell based screening assays were employed. Five bacteria strains producing beta-lactamase enzymes were used: K. pneumoniae expressing the Class A Extended Spectrum Beta-Lactamase (ESBL) CTX-M-15, E. coli expressing the Class A ESBL SHV-5, E. cloacae expressing the Class C P99+, K. pneumoniae expressing the Class A carbapenemase KPC-2, and P. aeruginosa expressing the Class B metallo β-lactamase VIM-2. In order to evaluate the ability of test compounds to inhibit beta-lactamase activity, Applicants used a modification of the broth microdilution assay. The assay was conducted in Cation Adjusted Mueller Hinton Broth (CAMHB, BD # 212322, BD Diagnostic Systems, Sparks, Md.). Bacteria strains were grown for 3-5 hours in CAMBH broth. All five strains were grown in presence of 50 μg/mL ampicillin to ensure resistance is maintained. In the meantime, test compounds were diluted in DMSO to a 0.1 mg/mL stock. The compounds were added to a microtiter plate and were diluted in 2-fold serial dilutions in CAMHB in a final concentration range of 8 μg/mL to 0.015 μg/ml. […] Each of these compound plates are made in quadruplicate, one for each bacteria strain. In addition to the titration of test compounds the MICs of a panel of cephalosporins is also tested to ensure the strains are behaving consistently from test to test. Once the test compound and cephalosporin are added the plates can be inoculated. Inocula are conducted according to CLSI broth microdilution method. After inoculation the plates are incubated for 16-20 hours at 37° C. then the Minimal Inhibitory Concentration (MIC) of the test compound is determined visually.\n(§2) Using the methodology described above, examples of the current invention were evaluated for their ability to inhibit the growth of β-lactamase producing bacteria in the presence of a β-lactam antibiotic."}, "[2]": {"test_system": "E. coli expressing the Class A ESBL SHV-5", "assay": "In vitro antibacterial assay of β-lactamase inhibition (broth microdilution MIC), E. coli SHV-5", "format": "cell-based", "settings": "for MIC: Escherichia coli, read-out: MIC alone, E. coli SHV-5", "source_text": "as §1, §2"}, "[3]": {"test_system": "E. cloacae expressing the Class C P99+", "assay": "In vitro antibacterial assay of β-lactamase inhibition (broth microdilution MIC), E. cloacae P99+", "format": "cell-based", "settings": "for MIC: Enterobacter cloacae, read-out: MIC alone, E. cloacae P99+ AmpC", "source_text": "as §1, §2"}, "[4]": {"test_system": "K. pneumoniae expressing the Class A carbapenemase KPC-2", "assay": "microbe, parasite or virus in culture", "format": "cell-based", "settings": "for MIC: Klebsiella pneumoniae, read-out: MIC alone, K. pneumoniae KPC-2", "source_text": "as §1, §2"}, "[5]": {"test_system": "P. aeruginosa expressing the Class B metallo β-lactamase VIM-2", "assay": "In vitro antibacterial assay of β-lactamase inhibition (broth microdilution MIC), P. aeruginosa VIM-2", "format": "cell-based", "settings": "for MIC: Pseudomonas aeruginosa, read-out: MIC alone, P. aeruginosa VIM-2", "source_text": "as §1, §2"}, "[6]": {"target": "T1, SHV-5 β-lactamase (Klebsiella pneumoniae, UniProt P0A3M1)", "T1 construct": "expressed as native untagged proteins; made in house; host or cells: E. coli BL21(DE3)", "T1 sequence (P0A3M1 22-286)": "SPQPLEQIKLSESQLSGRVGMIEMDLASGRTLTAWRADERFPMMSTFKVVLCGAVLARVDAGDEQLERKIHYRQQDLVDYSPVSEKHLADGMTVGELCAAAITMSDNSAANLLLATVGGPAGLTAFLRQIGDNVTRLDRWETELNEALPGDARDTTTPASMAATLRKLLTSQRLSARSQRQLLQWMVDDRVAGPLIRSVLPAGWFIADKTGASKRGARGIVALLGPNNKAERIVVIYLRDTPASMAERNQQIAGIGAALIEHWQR", "assay": "β-lactamase enzyme inhibition assay (nitrocefin substrate), SHV-5", "format": "biochemical", "procedure": "(§3) Isolation of β-lactamases. For SHV-5, p99 AmpC, KPC-2 and CTX-M15 β-lactamases, E. coli BL21(DE3) bacterial cells carrying expression plasmids (expressed as native untagged proteins) for the individual β-lactamases were grown in 1 L of Superbroth (Teknova Inc. Hollister, Calif.) supplemented with 100 μg/ml kanamycin and 1×5052 (0.5% glycerol, 0.05% glucose and 0.2% α-lactose) at 35° C. for 18-20 hours. Cells were harvested by centrifugation (4,000×g, 4° C., 20 min), and resuspended in 50 ml of 10 mM HEPES pH 7.5 (1/20 of the initial volume). The cells were lysed by sonication (5 pulses of 45 seconds) at 45 W on ice. The lysates were clarified by centrifugation at 10,000×g for 40 minutes at 4° C. Samples were diluted 5-fold in 50 mM sodium acetate pH 5.0, stored overnight at 4° C., after which they were centrifuged at 10,000×g for 30 minutes to clarify, and filtered through 0.45 μm filters. The samples were loaded onto a 5 ml Capto S sepharose cation exchange column (GE Healthcare) pre-equilibrated with 50 mM sodium acetate pH 5.0. The column was washed with 5 column volumes of 50 mM sodium acetate pH 5.0 to wash out unbound protein and a linear gradient of NaCl (0 to 500 mM) was used to elute the protein (over 16 CV) from the column. Fractions were assayed for β-lactamase activity using Centa (Calbiochem, Gibbstown, N.J.) as a reporter β-lactamase substrate for activity in the isolated fractions. Active fractions were pooled, concentrated and further purified by gel filtration chromatography on a Superdex 75 prep grade gel filtration column (GE Healthcare, Piscataway, N.J.) pre-equilibrated in 50 mM Hepes pH 7.5, 150 mM NaCl. Active fractions were pooled concentrated, quantitated by BCA protein determination (Thermo Scientific, Rockford, Ill.), and frozen at −80° C. in 20% glycerol until use.\n(§4) β-lactamase Inhibition. To determine the level of inhibition of β-lactamase enzymes, compounds were diluted in PBS at pH 7.0 to yield concentrations between 100 and 0.005 μM in microtiter plates. An equal volume of diluted enzyme stock was added, and the plates were incubated at 37° C. for 10 min. Nitrocefin solution was then dispensed as substrate into each well at a final concentration of 100 μM, and the plates were immediately read with the kinetic program at 486 nm for 10 min on the SPECTRAMAX® Plus^384 (high-throughput microplate spectrophotometer; Molecular Devices Corp., Sunnyvale, Calif.). Maximum rates of metabolism were then compared to those in control wells (without inhibitors), and percentages of enzyme inhibition were calculated for each concentration of inhibitor. The concentration of inhibitor needed to reduce the initial rate of hydrolysis of substrate by 50% (IC50) was calculated as the residual activity of β-lactamase at 486 nm using the SoftMax Pro 5.0 software (Molecular Devices Corp.).\n(§5) Using the methodology described above, examples of the current invention were evaluated for their ability to inhibit β-lactamase enzymes. The results of these assays are summarized in Table 2 for representative enzymes across different subtypes (note SHV-5 and CTXM-15 exemplify different subclasses of Ambler Class A Extended Spectrum Beta Lactamases, KPC-2 exemplifies Class A carbapenemases, P99 represents chromosomal Class C AmpC, VIM-2 exemplifies subclass B1 of metallo-β-lactamases, and OXA-23 represents chromosome-encoded Class D oxacillin-hydrolyzing β-lactamases), NT=not tested."}, "[7]": {"target": "T2, KPC-2 β-lactamase (Klebsiella pneumoniae, UniProt Q9F663)", "T2 construct": "expressed as native untagged proteins; made in house; host or cells: E. coli BL21(DE3)", "T2 sequence (Q9F663 25-293 limits assumed)": "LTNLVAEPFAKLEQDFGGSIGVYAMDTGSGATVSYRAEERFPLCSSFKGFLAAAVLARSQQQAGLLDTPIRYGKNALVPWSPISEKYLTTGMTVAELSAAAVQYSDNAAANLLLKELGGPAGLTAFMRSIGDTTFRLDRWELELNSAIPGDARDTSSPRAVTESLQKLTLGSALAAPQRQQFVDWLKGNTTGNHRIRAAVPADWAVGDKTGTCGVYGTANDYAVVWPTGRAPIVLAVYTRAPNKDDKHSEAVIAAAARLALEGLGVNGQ", "assay": "β-lactamase enzyme inhibition assay (nitrocefin substrate), KPC-2", "format": "biochemical", "procedure": "as §3, §4, §5"}, "[8]": {"target": "T3, p99 AmpC β-lactamase (Enterobacter cloacae, UniProt P05364)", "T3 construct": "expressed as native untagged proteins; made in house; host or cells: E. coli BL21(DE3)", "T3 sequence (P05364 21-381)": "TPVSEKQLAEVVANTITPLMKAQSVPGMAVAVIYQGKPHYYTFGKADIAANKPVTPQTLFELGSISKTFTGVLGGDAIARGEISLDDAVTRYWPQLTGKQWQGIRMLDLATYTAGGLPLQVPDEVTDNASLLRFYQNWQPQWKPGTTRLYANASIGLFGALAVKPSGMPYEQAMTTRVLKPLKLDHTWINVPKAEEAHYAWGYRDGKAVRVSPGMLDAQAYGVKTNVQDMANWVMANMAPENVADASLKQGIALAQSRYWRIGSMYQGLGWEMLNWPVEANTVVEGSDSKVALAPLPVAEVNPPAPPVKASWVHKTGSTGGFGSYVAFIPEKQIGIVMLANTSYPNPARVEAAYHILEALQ", "assay": "β-lactamase enzyme inhibition assay (nitrocefin substrate), P99 AmpC", "format": "biochemical", "settings": "nitrocefin 100 μM, 37° C., PBS pH 7.0; read-out: P99 AmpC IC50", "procedure": "as §3, §4, §5"}, "[9]": {"target": "T4, CTX-M15 β-lactamase (Escherichia coli, UniProt Q9EXV5)", "T4 construct": "expressed as native untagged proteins; made in house; host or cells: E. coli BL21(DE3)", "T4 sequence (Q9EXV5 entry or part of it)": "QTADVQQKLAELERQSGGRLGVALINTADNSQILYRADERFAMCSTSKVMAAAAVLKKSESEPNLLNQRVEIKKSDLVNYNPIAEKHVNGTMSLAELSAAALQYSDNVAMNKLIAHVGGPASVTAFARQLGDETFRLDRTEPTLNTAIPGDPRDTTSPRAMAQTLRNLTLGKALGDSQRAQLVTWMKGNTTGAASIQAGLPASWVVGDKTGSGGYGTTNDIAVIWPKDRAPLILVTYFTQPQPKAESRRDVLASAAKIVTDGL", "assay": "β-lactamase enzyme inhibition assay (nitrocefin substrate), CTXM-15", "format": "biochemical", "procedure": "as §3, §4, §5"}, "[10]": {"settings": "in presence of Ceftazidime 8 μg/ml (Examples 1-56)"}, "[11]": {"settings": "in presence of Piperacillin 16 μg/ml (Examples 57-65)"}}, "note": "pIC50: −log10 of the molar value. Where a name gives a salt, the structure may show the parent alone.", "data": [{"smiles": "Cl.O=C(N[C@@H](Cc1cccc(C(=O)O)c1O)B(O)O)c1ccc(CNCc2cccnc2)cc1", "note": "[Example 17]", "values": [{"measurement": "MIC of example compound, K. pneumoniae CTX-M-15", "setting": "[1]; [10]", "value": 2, "unit": "µg/mL"}, {"measurement": "MIC of example compound, E. coli SHV-5", "setting": "[2]; [10]", "value": ">8", "unit": "µg/mL"}, {"measurement": "MIC of example compound, E. cloacae P99+", "setting": "[3]; [10]", "value": 1, "unit": "µg/mL"}, {"measurement": "MIC of example compound, K. pneumoniae KPC-2", "setting": "[4]; [10]", "value": 0.12, "unit": "µg/mL"}, {"measurement": "MIC of example compound, P. aeruginosa VIM-2", "setting": "[5]; in presence of Ceftazidime 16 μg/mL (Examples 1-56)", "value": ">8", "unit": "µg/mL"}]}, {"smiles": "N=C(N)NCCC[C@H](NCc1ccc(CC(=O)N[C@@H](Cc2cccc(C(=O)O)c2O)B(O)O)cc1)C(=O)O", "note": "[Example 59, (1R)-1-(2-{4-[(1-Carboxy-4-guanidino-butylamino)-methyl]-phenyl}-acetylamino)-1-[(3-carboxy-2-hydroxy)benzyl]-methylboronic acid formate]", "values": [{"measurement": "pIC50", "setting": "[6]", "value": 8.70}, {"measurement": "MIC of example compound, K. pneumoniae CTX-M-15", "setting": "[1]; [11]", "value": ">16", "unit": "µg/mL"}, {"measurement": "MIC of example compound, E. coli SHV-5", "setting": "[2]; [11]", "value": 0.5, "unit": "µg/mL"}, {"measurement": "pIC50", "setting": "[7]", "value": 7.82}, {"measurement": "MIC of example compound, E. cloacae P99+", "setting": "[3]; [11]", "value": 2, "unit": "µg/mL"}, {"measurement": "MIC of example compound, K. pneumoniae KPC-2", "setting": "[4]; [11]", "value": 1, "unit": "µg/mL"}, {"measurement": "pIC50", "setting": "[8]", "value": 8.22}]}, {"smiles": "CCN1CCN(C(=O)N[C@@H](C(=O)N[C@@H]2C(=O)N3[C@@H]2SC(C)(C)[C@@H]3C(=O)O)c2ccccc2)C(=O)C1=O", "note": "[Pip, Piperacillin, reference compound]", "values": [{"measurement": "MIC", "setting": "[1]", "value": "> 128", "unit": "µg/mL"}, {"measurement": "MIC", "setting": "[2]", "value": "> 128", "unit": "µg/mL"}, {"measurement": "MIC", "setting": "[3]", "value": "> 128", "unit": "µg/mL"}, {"measurement": "MIC", "setting": "[4]", "value": "> 128", "unit": "µg/mL"}, {"measurement": "MIC", "setting": "[5]", "value": "> 128", "unit": "µg/mL"}]}, {"smiles": "N=C(N)NCc1ccc(CC(=O)N[C@@H](Cc2cccc(C(=O)O)c2O)B(O)O)cc1", "note": "[Example 61, (1R)-1-{2-[4-(1-guanidinomethyl)-phenyl]-acetylamino}-1-[(3-carboxy-2-hydroxy)benzyl]-methylboronic acid formate salt]", "values": [{"measurement": "pIC50", "setting": "[6]", "value": 8.70}, {"measurement": "pIC50", "setting": "[9]", "value": 8.40}, {"measurement": "MIC of example compound, K. pneumoniae CTX-M-15", "setting": "[1]; [11]", "value": 16, "unit": "µg/mL"}, {"measurement": "MIC of example compound, E. coli SHV-5", "setting": "[2]; [11]", "value": 0.25, "unit": "µg/mL"}, {"measurement": "pIC50", "setting": "[7]", "value": 7.85}, {"measurement": "MIC of example compound, E. cloacae P99+", "setting": "[3]; [11]", "value": 0.25, "unit": "µg/mL"}, {"measurement": "MIC of example compound, K. pneumoniae KPC-2", "setting": "[4]; [11]", "value": 0.25, "unit": "µg/mL"}, {"measurement": "pIC50", "setting": "[8]", "value": 7.96}]}, {"smiles": "N=C(N)c1ccc(CC(=O)N[C@@H](Cc2cccc(C(=O)O)c2O)B(O)O)cc1", "note": "[Example 62, (1R)-1-{2-[4-(Carbamimidoyl)-phenyl]-acetylamino}-1-[(3-carboxy-2-hydroxy)benzyl]-methylboronic acid formate salt]", "values": [{"measurement": "pIC50", "setting": "[6]", "value": 8.70}, {"measurement": "MIC of example compound, K. pneumoniae CTX-M-15", "setting": "[1]; [11]", "value": ">128", "unit": "µg/mL"}, {"measurement": "MIC of example compound, E. coli SHV-5", "setting": "[2]; [11]", "value": 0.125, "unit": "µg/mL"}, {"measurement": "pIC50", "setting": "[7]", "value": 8.05}, {"measurement": "MIC of example compound, E. cloacae P99+", "setting": "[3]; [11]", "value": 0.125, "unit": "µg/mL"}, {"measurement": "MIC of example compound, K. pneumoniae KPC-2", "setting": "[4]; [11]", "value": 0.125, "unit": "µg/mL"}, {"measurement": "pIC50", "setting": "[8]", "value": 8.52}]}, {"smiles": "CC(C)(O/N=C(\\C(=O)N[C@@H]1C(=O)N2C(C(=O)[O-])=C(C[n+]3ccccc3)CS[C@H]12)c1csc(N)n1)C(=O)O", "note": "[Ceftazidime, reference compound]", "values": [{"measurement": "MIC", "setting": "[1]", "value": 128, "unit": "µg/mL"}, {"measurement": "MIC", "setting": "[2]", "value": "> 1020", "unit": "µg/mL"}, {"measurement": "MIC", "setting": "[3]", "value": 128, "unit": "µg/mL"}, {"measurement": "MIC", "setting": "[4]", "value": 32, "unit": "µg/mL"}, {"measurement": "MIC", "setting": "[5]", "value": 128, "unit": "µg/mL"}]}]}
